# Reference: patent US9188595B2, “Alzheimer's disease diagnosis based on mitogen-activated protein kinase phosphorylation” (Blanchett Rockefeller Neurosciences Institute, priority 2001, dated 2015)
# How the values were obtained:
# CREB = assay: BK-stimulated CREB phosphorylation (Ser133) and total CREB in skin fibroblasts (Western blot); type: cell-based, human; details: 10 nM BK 10 min; for Effect on expression of the CREB protein: 10 μM for 15 min
# Procedure: FIGS. 5A, 5B1, 5B2, 5C1 and 5C2. Changes in phosphorylation of, and amounts of CREB after BK stimulation. AC and AD cells were treated with 10 nM BK for 5 or 10 min. Phosphorylated CREB (P-CREB) was measured using a anti-phospho-CREB-Serl33 antibody on Western blots. The mean densities of P-CREB were normalized against the total amount of CREB measured using an anti-“regular CREB” antibody and subjected to statistic analyses.
# FIGS. 6A1, 6A2, 6B1, 6B2, 6C1 and 6C2. Effects of different inhibitors on BK-stimulated phosphorylation of CREB. AC and AD cells were preincubated at 37° C. for 15 min with 5 μM BiSM-1 (FIG. 6A), 10 μM PP1 (FIG. 6B), or 5 μM Ly294002 (FIG. 6C) before incubation with 10 nM BK for 10 min Nointalization was performed as with FIGS. 5A-5C and statistical significance of differences were evaluated by 2-way ANOVA. **p<0.0001; *p<0.05.
# (§1) For inhibition studies, cells were preincubated with the following concentration of inhibitor at 37° C. for the intervals indicated: 2ABP (50 μM for 30 min); PP1 (10 μM for 15 min); Ly294002 (5 μM for 15 min); and BiSM-1 (5 μM for 15 min). A parallel control flask was incubated with an identical volume of DMSO vehicle. At the end of this incubation, the same inhibitor at the indicated concentration was added and followed immediately by BK to a final concentration of 10 nM. BK (10 nM) was also added to DMSO controls. Basal controls were cells to which neither BK nor inhibitors were added. After a 5-min incubation at 37° C., the reaction was terminated as above.
# CREB was detected using analogous methods.
# Signals from phosphorylated and nonphosphorylated Erk1/2 (or CREB) were scanned with a Fuji film LAS-1000 Plus scanner. The mean optical density of each protein band was measured using NIH Image software. Values from the phosph-Erk1/2 signals were normalized respectively against the total signal of Erk1/2. After normalization, data from treated cells was converted to a percentage of the basal control and subjected to statistical analyses.
# Erk1/2 = assay: BK-stimulated Erk1/2 phosphorylation in skin fibroblasts (Western blot, normalized to total Erk1/2); type: cell-based, human; details: 10 nM BK 5 min
# Procedure: Banked AC and AD fibroblasts were grown to 80-100% confluence before they were “starved” in a serum-free DMEM overnight. Cells were treated with 10 nM BK at 37° C. for different intervals to establish a time course for BK effects. The same volume of PBS was added to a control flask of cells of each line. The reaction was terminated by removing the medium, rapidly rinsing the cells with pre-cooled PBS, pH 7.4, and transferring the flask onto dry ice/ethanol.
# as §1
# Cell lysates were prepared from cells of the various groups. Flasks were moved from dry ice/ethanol to ice water. Each flask received 1 ml of lysis buffer (10 mM Tris pH 7.4, 150 mM NaCl, 1 mM EDTA, 1 mM EGTA, pH 8, 0.5% NP-40, 1% Triton X-100, 1% protease inhibitor cocktail (Sigma), 1% cocktail of serine/threonine (Ser/Thr) phosphatase inhibitor and tyrosine (Tyr) phosphatase inhibitor (Sigma). After rocking on an end-to-end shaker in a cold room for 30 min, cells were collected from each flask with a cell scraper. […]
# Cell lysates were boiled in an equal volume of 2× SDS-sample buffer for 10 min. […] Phosphorylated Erk1/2 was detected with anti-phospho-Erk1/2 antibody using the SuperSignal ECL detection kit. […]
# Signals from phosphorylated and nonphosphorylated Erk1/2 (or CREB) were scanned with a Fuji film LAS-1000 Plus scanner. The mean optical density of each protein band was measured using NIH Image software. […]
# [1] = AC and AD cells, preincubation 10 μM for 15 min
compound,measurement,setting,value
Cc1ccc(-c2nn(C(C)(C)C)c3ncnc(N)c23)cc1 [PP1],Effect on BK-stimulated CREB phosphorylation,CREB; [1],inhibited
same,Effect on expression of the CREB protein,CREB; AD cells,not observed
same,Effect on expression of the CREB protein,CREB; control (AC) cells,increased expression of the CREB protein
same,Effect on BK-induced Erk1/2 phosphorylation,Erk1/2; [1],completely inhibited
"CN(C)CCCn1cc(C2=C(c3c[nH]c4ccccc34)C(=O)NC2=O)c2ccccc21 [BiSM-1, bisindolylmaleimide-1]",Effect on BK-stimulated CREB phosphorylation,"CREB; AC and AD cells (no group effect), preincubation 5 μM for 15 min",completely abolished
same,Effect on BK-induced phosphorylation of Erk1/2,"Erk1/2; both AC and AD cells, preincubation 5 μM for 15 min",abolished
O=c1cc(N2CCOCC2)oc2c(-c3ccccc3)cccc12 [LY294002],Effect on BK-induced Erk1/2 phosphorylation,"Erk1/2; AD cells, preincubation 5 μM for 15 min",failed to inhibit
